Experimental data reported in US20240307392A1, “ERK1/2 AND EGFR INHIBITORS COMBINATION THERAPY” (Erasca, Inc., priority 2021, published 2024).

Assay: Body weight loss / DietGel supply in CRC1011 PDX study
Format: in vivo, Balb/c nude mice
Experimental: Female Balb/c nude mice were purchased from the Beijing Vital River Laboratory Animal Technology Co., Ltd. Mice were hosted in a special pathogen-free (SPF) environment of the vivarium facility and acclimated to their new environment for at least 3 days prior to initiation of any experiments. Mice were between 6-8 weeks of age at the time of implantation. All procedures related to animal handling, care, and treatment in this study were performed according to the protocols and guidelines approved by the Institutional Animal Care and Use Committee (IACUC) of GenenDesign. Animal facility and program is operated under the standard of Guide for the Care and Use of Laboratory Animals (NRC, 2011) and accredited by the Association for Assessment and Accreditation of Laboratory Animal Care (AAALAC). Specifically, all portions of this study performed at GenenDesign adhered to the study protocols reviewed and approved by IACUC and applicable standard operating procedures (SOPs).
Treatment started on the day after randomization. The treatment start day was denoted as treatment day 0. Mice were dosed by administration of vehicle control solution. Compound 1 at 30 mg/kg/dose BID, p.o., and encorafenib at 90 mg/kg QD, p.o. as monotherapies. An additional group received combination treatment of Compound 1 at 30 mg/kg/dose BID with encorafenib at 90 mg/kg QD. The dosing volumes for Compound 1 and encorafenib were 5 mL/kg and interval of BID regimen was 8 hours. In the combination group of Compound 1 with encorafenib, encorafenib was dosed first and the first dose of Compound 1 BID was given one hour later. In addition to regular food and water supply. DietGel was added in cages where at least two mice started showing >10% BWL. Per this practice. mice in the Compound 1 at 30 mg/kg/dose BID monotherapy group and the Compound 1 at 30 mg/kg/dose BID with encorafenib at 90 mg/kg QD combination group were supplied with DietGel food starting on treatment day […], respectively, and continuing through the remaining study period. […]

Cc1cnc(NC2CCOCC2)nc1-n1cnc(C(=O)N[C@H](CN)c2cc(F)cc(Cl)c2)c1 [Compound 1, (S)-N-(2-amino-1-(3-chloro-5-fluorophenyl)ethyl)-1(5-methyl-2-((tetrahydro-2H-pyran-4-yl)amino)pyrimidin-4-yl)-1H-imidazole-4-carboxamide]
start of DietGel supply (added where at least two mice started showing >10% BWL) (Compound 1 30 mg/kg/dose BID + encorafenib 90 mg/kg QD): 12 treatment day
start of DietGel supply (added where at least two mice started showing >10% BWL) (Compound 1 30 mg/kg/dose BID + encorafenib 90 mg/kg QD + cetuximab 30 mg/kg Q3D): 9 treatment day
start of DietGel supply (added where at least two mice started showing >10% BWL) (Compound 1 30 mg/kg/dose BID monotherapy): 12 treatment day
